From US20020173489A1, “COMPOSITIONS CONTAINING A MIXTURE OF PHOSPHOROUS COMPOUNDS AND ALKYLGLYCEROLS” (priority 1987, published 2002)
Entries after “also recorded” stand apart in the source; their conditions may differ.

Tests used:
wart-shaped excrescence = test: topical treatment of a wart-shaped excrescence (Example 9); format: in vivo, human
Experimental: A person presented a wart-shaped excrescence of increasing size (diameter: about 5 mm; height: about 3 mm), formed at the site of a stab wound on their right middle finger after an initial inflammatory reaction. The excrescence grew over a period of about 1.5 years. There was heavy vascularization at the site, as well as superficial furrowing. The position of the wart (side facing the ring finger), made it quite susceptible to injury.
The patient was treated by topically administering a composition containing 40 mg/ml hexadecylphosphocholine, 317 mg/ml of 3-propoxypropyleneglycol, 158 mg/ml of hexyloxypropyleneglycol, and 158 mg/ml of nonyloxypropyleneglycol, in solution, and then a solution containing 60 mg/ml of the hexadecy/phosphocholine, and the other components above, in the same amounts. The solutions were administered topically, 2-3 times per day.
The excrescence rapidly developed a horny surface, and regressed. Cornified residues were removable without bleeding. The treatment was terminated […] the surrounding skin level was reached. This took about 6 weeks. When the patient was examined about 8 weeks later, the condition was stable. […] It is believed that this was the result of regeneration of the epidermis in the excrescence region.

[1] = test system: chemically-induced mammary carcinomas; test: chemically-induced mammary carcinomas in rats, oral potable solution; format: in vivo, rat; details: daily doses of 20, 40 and 60 mg/kg body weight
Source text: For oral administration, the compounds of formula I are advantageously used in the form of a potable solution. Suitable potable carriers for this purpose include milks, cocoa, fruit juices and drinking water. The preparation of such potable solutions can involve, for example, diluting a concentrated alcoholic solution of a compound of the formula I or I′ with water or with another one of the previously mentioned carriers. […] The tumor model used for these experiments was a so-called hard model. This means that the findings obtained with this model can also be applied to humans.

SMILES	condition at follow-up (wart-shaped excrescence; examined about 8 weeks after end of treatment)	effect on the excrescence (wart-shaped excrescence; person, topical 2-3 times per day, 40 then 60 mg/ml in propoxy-/hexyloxy-/nonyloxypropyleneglycol solution)	damage to surrounding healthy skin regions (wart-shaped excrescence; topical)	time of treatment until termination (before surrounding skin level was reached) (wart-shaped excrescence; topical 2-3 times per day)	skin reactions (wart-shaped excrescence; topical, reddening disappeared after about 2 weeks)	remission of chemically-induced mammary carcinomas [1]
CCCCCCCCCCCCCCCCOP(=O)([O-])OCC[N+](C)(C)C [hexadecylphosphocholine]	stable	regressed	no apparent damage	about 6 weeks	slight reddening of the skin; also recorded: slight peeling of healthy skin	
CCCCCCCC/C=C\CCCCCCCCOP(=O)([O-])OCC[N+](C)(C)C [oleylphosphocholine]						complete remission
